# Assays:
# LNCaP = assay: Antiproliferative activity against human LNCaP assessed as reduction in cell viability incubated for 72 hrs by MTT assay; assay type: functional, cell-based
# MDA-MB-231 [1] = assay: Cytotoxicity against human MDA-MB-231 cells assessed as cell growth inhibition incubated for 48 hrs by SRB assay; assay type: functional, cell-based; conditions: MDA-MB-231, 48 h
# MDA-MB-231 [2] = assay: Cytotoxicity against human MDA-MB-231 cells assessed as reduction in cell viability measured after 24 hrs by MTT assay; conditions: MDA-MB-231, 24 h
# KB = assay: Antitumor activity against human KB cells assessed as inhibition of cell growth measured upto 96 hrs in presence of thymidine by Cell titer blue assay; assay type: functional; set-up: scale not given: the % may be the effect or the level left
# [3] = target: MAP kinase p38 (Homo sapiens) (UniProt O15264+Q15759+Q16539+P53778); assay: Inhibition of p38-MAPK (unknown origin) at 30 uM relative to control; assay type: protein assay
# [4] = Inhibition of ERK (unknown origin) at 100 uM by western blot assay relative to control; conditions: Homo sapiens
# Homo sapiens = species on record: Homo sapiens; assay: Inhibition of PI3K/AKT/NF-kappaB (unknown origin) at 30 uM relative to control
# MDA-MB-231 [5] = assay: Inhibition of cell adhesion in human MDA-MB-231 cells assessed as reduction in cell adhesion at 10 uM relative to control; assay type: functional; set-up: scale not given: the % may be the effect or the level left
# MDA-MB-231 [6] = assay: Inhibition of cell invasion of human MDA-MB-231 cells at 10 uM incubated for 24 hrs by crystal violet staining based analysis; assay type: functional; set-up: scale not given: the % may be the effect or the level left
# MDA-MB-231 [7] = assay: Inhibition of cell migration in human MDA-MB-231 cells measured upto 48 hrs by transwell chamber assay relative to control; assay type: functional; set-up: scale not given: the % may be the effect or the level left
# [8] = Inhibition of Streptococcus sobrinus glycosyl transferase
# SK-BR-3 [9] = assay: Antiproliferative activity against human SK-BR-3 cells assessed as inhibition of cell proliferation incubated for 3 days by sulforhodamine B colorimetric assay; assay type: functional, cell-based; conditions: SK-BR-3, 72 h
# HCT-116 = assay: Cytotoxicity against human HCT-116 cells assessed as reduction in cell growth measured after 24 hrs by MTT assay; assay type: functional, cell-based; conditions: HCT-116, 24 h
# PANC-1 = assay: Cytotoxicity against human PANC-1 cells assessed as reduction in cell viability measured after 24 hrs by MTT assay; assay type: functional, cell-based; conditions: PANC-1, 24 h
# A-431 = assay: Cytotoxicity against human A-431 cells assessed as reduction in cell growth measured after 24 hrs by MTT assay; assay type: functional, cell-based; conditions: A-431, 24 h
# SK-OV-3 = assay: Cytotoxicity against human SK-OV-3 cells assessed as reduction in cell growth measured after 24 hrs by MTT assay; assay type: functional, cell-based; conditions: SK-OV-3, 24 h
# MCF7 [10] = assay: Cytotoxicity against human MCF7 cells assessed as reduction in cell growth incubated for 24 hrs by MTT assay; assay type: functional, cell-based; conditions: MCF7, 24 h
# NCI-H460 = assay: Cytotoxicity against human NCI-H460 cells assessed as reduction in cell viability incubated for 24 hrs by MTT assay; assay type: functional, cell-based; conditions: NCI-H460, 24 h
# SK-BR-3 [11] = assay: Cytotoxicity against human SK-BR-3 cells assessed as reduction in cell growth incubated for 24 hrs by MTT assay; assay type: functional, cell-based; conditions: SK-BR-3, 24 h
# ZR-75-1 = assay: Cytotoxicity against human ZR-75-1 cells assessed as reduction in cell viability incubated for 24 hrs by MTT assay; assay type: functional, cell-based; conditions: ZR-75-1, 24 h
# MDA-MB-231 [12] = assay: Cytotoxicity against human MDA-MB-231 cells assessed as reduction in cell viability incubated for 24 hrs by MTT assay; assay type: functional, cell-based; conditions: MDA-MB-231, 24 h
# U-266 = assay: Anticancer activity against human U-266 cells assessed as inhibition of cell growth; assay type: functional, cell-based
# MCF7 [13] = assay: Antiproliferative activity against human MCF7 cells assessed as reduction in cell viability incubated for 72 hrs by MTT assay; assay type: functional, cell-based; conditions: MCF7, 72 h
# U-937 [14] = assay: Antiproliferative activity against human U-937 cells assessed as cell growth inhibition measured after 72 hrs; assay type: functional, cell-based; conditions: U-937, 72 h
# U-937 [15] = assay: Antiproliferative activity against human U-937 cells measured upto 72 hrs; assay type: functional, cell-based; conditions: U-937, 72 h
# HCC827 = assay: Antiproliferative activity against human HCC827 cells assessed as reduction in cell viability incubated for 72 hrs by MTT assay; assay type: functional, cell-based; conditions: HCC827, 72 h
# NSCLC = assay: Antiproliferative activity against human NSCLC cells assessed as cell growth inhibition incubated for 72 hrs by MTT assay; assay type: functional, cell-based
# K562 = assay: Antiproliferative activity against human K562 cells assessed as reduction in cell viability incubated for 48 hrs by MTT assay; assay type: functional, cell-based; conditions: K562, 48 h
compound,measurement,setting,value
O=C(O[C@@H]1Cc2c(O)cc(O)cc2O[C@@H]1c1ccc(O)c(O)c1)c1cc(O)c(O)c(O)c1 [EPICATECHIN GALLATE],IC50,LNCaP,36 µM
O=C(Oc1cc(O)cc2ccccc12)c1cc(O)c(O)c(O)c1,IC50,MDA-MB-231 [1],79 µM
CC(=O)Oc1cc(OC(C)=O)c2c(c1)O[C@H](c1cc(OC(C)=O)c(OC(C)=O)c(OC(C)=O)c1)[C@H](OC(=O)c1cc(OC(C)=O)c(OC(C)OC(=O)OC(C)C)c(OC(C)=O)c1)C2 (stereo partly specified),CC50,MDA-MB-231 [2],53.9 µM
O=C(O[C@@H]1Cc2c(O)cc(O)cc2O[C@@H]1c1cc(O)c(O)c(O)c1)c1cc(O)c(O)c(O)c1 [EPIGALOCATECHIN GALLATE],Activity,KB,70%
same,inhibition,[3],45%
same,inhibition,[4],25%
same,inhibition,Homo sapiens,25%
same,Activity,MDA-MB-231 [5],40%
same,Activity,MDA-MB-231 [6],56%
same,Activity,MDA-MB-231 [7],40%
same,IC50,MDA-MB-231 [1],149 µM
same,IC50,[8],89.5 µM
O=C(Oc1ccc(-c2ccc(OC(=O)c3cc(O)c(O)c(O)c3)cc2)cc1)c1cc(O)c(O)c(O)c1,IC50,SK-BR-3 [9],10 µM
same,IC50,HCT-116,10 µM
same,IC50,PANC-1,10 µM
same,IC50,A-431,10 µM
same,IC50,SK-OV-3,10 µM
same,IC50,MCF7 [10],10 µM
same,IC50,NCI-H460,10 µM
same,IC50,SK-BR-3 [11],2 µM
same,IC50,ZR-75-1,2 µM
same,IC50,MDA-MB-231 [12],2 µM
same,IC50,MDA-MB-231 [1],45 µM
COc1cc([C@H]2Oc3cccc(OC)c3C[C@H]2OC(=O)c2cc(O)c(O)c(O)c2)cc(O)c1O,IC50,U-266,0.8 µM
COc1cc(OC)c2c(c1)OC(c1ccccc1)[C@H](OC(=O)c1ccc(OC(C)=O)c(CC=C(C)C)c1)C2 (stereo partly specified),IC50,MCF7 [13],3.99 µM
O=C(Nc1cccc(NC(=O)c2cccc(O)c2O)c1)c1cccc(O)c1O,IC50,U-937 [14],1.7 µM
same,IC50,U-937 [15],0.67 µM
O=C(O[C@@H]1Cc2c(O)cc(O)cc2O[C@@H]1c1cc(O)c(=O)c2c(O)c(O)c(O)cc2c1)c1cc(O)c(O)c(O)c1,IC50,[8],11 µM
COC(=O)c1c(O)cc2c(c1O)C[C@@H](OC(=O)c1cc(O)c(O)c(O)c1)[C@@H](c1cc(O)c(O)c(O)c1)O2,IC50,HCC827,~20 µM
same,IC50,NSCLC,~20 µM
O=C(O[C@@H]1Cc2c(O)cc(O)cc2O[C@@H]1c1cc(O)c(=O)c2c(O)c(O)cc([C@H]3Oc4cc(O)cc(O)c4C[C@H]3O)c2c1)c1cc(O)c(O)c(O)c1 [THEAFLAVIN MONOGALLATES],IC50,[8],7.7 µM
CCCCCCCCCCCCCCCC(=O)Oc1cc([C@H]2Oc3cc(O)cc(O)c3C[C@H]2OC(=O)c2cc(O)c(O)c(O)c2)cc(O)c1O,IC50,K562,17 µM
O=C(Nc1c(-c2ccc(O)c(O)c2)oc2ccccc2c1=O)c1ccc(O)c(O)c1,IC50,U-937 [14],37 µM
same,IC50,U-937 [15],0.38 µM
COc1ccc2c(c1)O[C@H](c1cc(OC)c(O)c(OC)c1)[C@H](OC(=O)c1cc(O)c(O)c(O)c1)C2,IC50,U-266,0.64 µM
CCOc1cccc(C(=O)O[C@H]2COc3cc(OC)cc(OC)c3C2)c1,IC50,MCF7 [13],8.19 µM
